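Cells were grown in 96-well plates and exposed to each compound for 48 hours at five concentrations; endpoints were interpolated linearly between bracketing concentrations, or set to the highest concentration if not reached. GI50 = concentration required for 50% inhibition of growth. TGI marks complete inhibition of growth.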
Legend:
Test in all cases: NCI tumour cell line growth inhibition, 48 h
PC-3 prostate = tested on: PC-3 prostate
T-47D breast = tested on: T-47D breast
HL-60(TB) leukemia = tested on: HL-60(TB) leukemia
SW-620 colon = tested on: SW-620 colon
786-0 renal = tested on: 786-0 renal
CAKI-1 renal = tested on: CAKI-1 renal
UO-31 renal = tested on: UO-31 renal
SNB-19 CNS = tested on: SNB-19 CNS
HS 578T breast = tested on: HS 578T breast
HCT-15 colon = tested on: HCT-15 colon
OVCAR-5 ovarian = tested on: OVCAR-5 ovarian
ACHN renal = tested on: ACHN renal

With `C=C(C)C1CC/C(C)=C/CC[C@]2(C)O[C@H]2CC/C(COC(C)=O)=C\[C@@H]1O` (some centres not stated) the TGI (PC-3 prostate) was > 50 µM, the TGI (T-47D breast) was > 50 µM and the TGI (HL-60(TB) leukemia) was > 50 µM. The TGI (SW-620 colon) was > 50 µM, the TGI (786-0 renal) was > 50 µM and the TGI (CAKI-1 renal) was > 50 µM. The TGI (UO-31 renal) was > 50 µM, the TGI (SNB-19 CNS) was > 50 µM and the GI50 (HS 578T breast) was 8.27 µM. For the same molecule, the TGI (HS 578T breast) was > 50 µM, the TGI (HCT-15 colon) was > 50 µM and the TGI (OVCAR-5 ovarian) was > 50 µM. For the same molecule, the TGI (ACHN renal) was > 50 µM.

For `C=C(C)CC1(O)C(=O)C(OCC)=C1OCC` (configuration not stated), the TGI (PC-3 prostate) was > 100 µM, the TGI (T-47D breast) was > 100 µM and the TGI (HL-60(TB) leukemia) was > 100 µM. The TGI (SW-620 colon) was > 100 µM, the TGI (786-0 renal) was > 100 µM and the TGI (CAKI-1 renal) was > 100 µM. The TGI (UO-31 renal) was > 100 µM, the TGI (SNB-19 CNS) was > 100 µM and the TGI (HS 578T breast) was > 100 µM. For the same molecule, the TGI (HCT-15 colon) was > 100 µM, the TGI (OVCAR-5 ovarian) was > 100 µM and the TGI (ACHN renal) was > 100 µM.

In the case of `CC1(C)CC(=O)C2=C(C1)NC1=C(C(=O)CC(C)(C)C1)C2c1ccc([N+](=O)[O-])cc1`, the TGI (PC-3 prostate) is reported as > 100 µM, the TGI (T-47D breast) is reported as > 100 µM and the TGI (HL-60(TB) leukemia) is reported as > 100 µM. For the same molecule, the TGI (SW-620 colon) was > 100 µM, the TGI (786-0 renal) was > 100 µM and the TGI (CAKI-1 renal) was > 100 µM. For the same molecule, the TGI (UO-31 renal) was > 100 µM, the TGI (SNB-19 CNS) was > 100 µM and the TGI (HS 578T breast) was > 100 µM. For the same molecule, the TGI (HCT-15 colon) was > 100 µM, the TGI (OVCAR-5 ovarian) was > 100 µM and the TGI (ACHN renal) was > 100 µM.
